For data set [1], the system named is resting CD4+ and CD8+ T-cells. As to the kind of experiment: Viability of resting T-cells (annexin V / 7-AAD flow cytometry). It counts as cell-based, human. The note with it: 48 hours; except at high concentrations (30 μM); FIG. 4. The procedure: (§1) CD3^+ T-cells and CD14^+ monocytes were purified from PBMCs using Human CD3 MicroBeads and Human CD14 MicroBeads, respectively (Miltenyi Biotech). Purified CD3^+ T-cells (2×10^5 cells) or CD14^+ monocytes (2×10^5 cells) were treated with either Compound 1 or DMSO in RPMI 1640 medium containing 10% heat-inactivated FBS, 2-mercaptoethanol and penicillin-streptomycin antibiotics at 37° C., 5% CO2, and 100% humidity. After 48 hours, the cells were stained with antibodies specific for the indicated cell subsets, and annexin V and 7-aminoactinomycin D (7-AAD) cell viability dyes for measurement by flow cytometry. […] Similar data were obtained at 24 and 72 hours (data not shown). Data are representative of several independent experiments utilizing different human PBMC samples, and are reported as the A decrease in percent viability of duplicate wells [mean±standard deviation (SD)].

Data set [2] relates to PBMCs (effector) with irradiated allogenic PBMCs (stimulator). The data set is described as follows: Allogenic mixed lymphocyte reaction (MLR). The note with it: 4 days plus 18 hours labeling; FIG. 2A-2C. It counts as cell-based, human. As for the experimental part:
The allogenic MLR is a cell proliferation assay where one population of lymphocytes (effector cells) is stimulated to proliferate by another genetically distinct population of lymphocytes (stimulator cells), which have been rendered non-proliferative. PBMCs [2×10^5 cells, effector (E) population] and irradiated (IR) allogenic PBMCs [1×10^5 cells, stimulator (S) population] were treated with either Compound 1 or DMSO in RPMI 1640 medium containing 10% heat-inactivated FBS, 2-mercaptoethanol and penicillin-streptomycin antibiotics at 37° C., 5% CO2, and 100% humidity. After 4 days, the cells were labeled with ^3H-thymidine for an additional 18 hours to measure lymphocyte proliferation by liquid scintillation counting. […] Multiple independent experiments utilizing different effector/stimulator pairs were conducted. Data are reported as the mean counts per minute (CPM)±standard deviation (SD) of triplicate wells.

Another data set concerns resting CD14+ monocytes. The data set is described as follows: Viability of resting monocytes (annexin V / 7-AAD flow cytometry). Type of data set: cell-based, human. The conditions noted are these: 48 hours; FIG. 4. As for the experimental part:
as §1

In data set [3] the test system is anti-CD3 antibody and anti-CD28 antibody-activated PBMCs. The data set is described as follows: Cytokine secretion by anti-CD3 and anti-CD28 antibody-activated PBMCs (LEGENDplex Human Th Cytokine Panel). It counts as cell-based. The conditions noted are these: culture supernatants after 24 hours; fold change relative to DMSO control; FIG. 3A. As for the experimental part:
PBMCs (2×10^5 cells) were treated with either Compound 1 or DMSO, and anti-CD3 and anti-CD28 antibodies in RPMI 1640 medium containing 10% heat-inactivated FBS, 2-mercaptoethanol and penicillin-streptomycin antibiotics at 37° C., 5% CO2, and 100% humidity. After 24 hours, cytokine levels in culture supernatants were determined by a LEGENDplex Human Th Cytokine Panel by manufacturer's instructions (BioLegend, Inc.).
In the presence of Compound 1, the level of all measured cytokines decreased, including IL-2, IL-6, IFNγ and TNFα. Data are representative of several independent experiments utilizing different human PBMC samples, and are reported as the fold change for Compound 1 relative to the DMSO control of duplicate wells.

For data set [4], the system named is CD4+ and CD8+ T-cells in peripheral blood mononuclear cells (PBMCs). As to the kind of experiment: T-cell activation in stimulated PBMCs (activation markers by flow cytometry). It counts as cell-based, human. The conditions noted are these: PBMCs stimulated with anti-CD3 and anti-CD28 antibodies, PHA or SEB; 24 or 48 hours; FIG. 1A.
The subject of the next data set is unstimulated whole blood. As to the kind of experiment: Whole blood cytokine release assay (CRA). The note with it: whole blood diluted 4:1 with RPMI 1640, 4 hours; LEGENDplex Human Th Cytokine Panel. It counts as cell-based. The procedure: The potential for cytokine release syndrome in patients treated with Compound 1 was evaluated using a whole blood cytokine release assay (CRA). Fresh whole blood from a healthy human donor was diluted 4:1 with RPMI 1640 medium and cultured for 4 hours in the presence of Compound 1 or DMSO. Lipopolysaccharide (LPS) (1 μg/mL) was used as a positive control. Cytokine levels in serum samples were determined by a LEGENDplex Human Th Cytokine Panel by manufacturer's instructions (BioLegend, Inc.). […] Data listed in Table 1 below are representative of several independent experiments, and are reported as the mean fold change for Compound 1 relative to the DMSO control of duplicate wells.

Data set [5] has as its system mouse primary cancer-associated fibroblasts (CAFs). As to the kind of experiment: TGFβ production by primary cancer-associated fibroblasts (CAFs). Type of data set: cell-based. The conditions noted are these: after 3 days; fold change relative to DMSO control; FIG. 3B. The text has this: Cancer-associated fibroblasts (CAFs) are used as a model system to investigate TGFβ cytokine production. C57BL/6 mice were obtained from The Jackson Laboratory. The Institutional Animal Care and Use Committee of the University Health Network approved all animal procedures. CAFs were obtained from C57BL/6 mice by growing MC38-CEA mouse colon cancer xenografts subcutaneously in a conventional manner. When tumors reached a size of approximately 1000 mm^3 they were excised and disaggregated, and CAFs were isolated with a Tumor-Associated Fibroblast Isolation Kit (Miltenyi Biotec). Isolated CAFs were grown with a MesenCult Expansion Kit (STEMCELL Technologies, Inc.) at 37° C., 5% CO2, 3% O2, and 100% relative humidity. CAFs were seeded into a 96-well plate in DMEM medium containing 10% FBS 24 hours before treatment with either Compound 1 or DMSO. After 3 days, latent TGFβ was determined by a Mouse Latent TGFβ Legend Max kit by manufacturer's instructions (BioLegend, Inc.). Compound 1 inhibited TGFβ production by mouse primary CAFs. Data are representative of several independent experiments, and are reported as the fold change for Compound 1 relative to the DMSO control of duplicate wells.

The subject of data set [6] is anti-CD3 antibody and anti-CD28 antibody-, PHA- or SEB-activated lymphocytes. The data set is described as follows: Proliferation of activated lymphocytes in PBMCs (3H-thymidine). Type of data set: cell-based, human. The note with it: PBMCs stimulated with anti-CD3 and anti-CD28 antibodies, 24 hours plus 18 hours labeling, FIG. 1B. As for the experimental part:
PBMCs (2×10^5 cells) were treated with either Compound 1 or DMSO, and anti-CD3 and anti-CD28 antibodies, PHA or SEB in RPMI 1640 medium containing 10% heat-inactivated FBS, 2-mercaptoethanol and penicillin-streptomycin antibiotics at 37° C., 5% CO2, and 100% humidity. After 24 hours, the cells were labeled with ^3H-thymidine for an additional 18 hours to measure lymphocyte proliferation by liquid scintillation counting. Proliferation of anti-CD3 antibody and anti-CD28 antibody-, PHA- or SEB-activated lymphocytes was inhibited by Compound 1 treatment, as shown in FIG. 1B. Similar data were obtained at 48 hours (data not shown). Data are representative of several independent experiments utilizing different PBMC samples, and are reported as the mean counts per minute (CPM)±standard deviation (SD) of duplicate wells.

Data set [7] relates to C57BL/6 mice immunized with MOG35-55 peptide. As to the kind of experiment: Experimental autoimmune encephalomyelitis (EAE) model. It counts as in vivo, mouse. The conditions noted are these: 50 mg/kg PO QD during EAE induction; FIG. 5.

Each structure is given as a SMILES string.

Take `CN1CCN(c2ccc3nc(-c4c(N)c5ccsc5[nH]c4=O)[nH]c3c2)CC1` [Compound 1]: the “Viability of resting CD4+ and CD8+ T-cells” value in data set [1] is reported as “no significant effect”. Also, in data set [2], the “Lymphocyte proliferation in allogenic MLR (3H-thymidine, CPM)” value was “dose-dependent inhibition”. Besides, in the data set with resting CD14+ monocytes, the “Viability of resting CD14+ monocytes” value was “dose-dependent loss of viability”. Moreover, the “Level of all measured cytokines, including IL-2, IL-6, IFNγ and TNFα” value in [3] was “decreased”. Also, in [4], the “CD4+ and CD8+ T-cell activation (cell surface expression of CD25 and CD69, shedding of CD62L)” value is “titratable inhibition”. In the data set with unstimulated whole blood, the “Induction of cytokine levels predictive of cytokine release syndrome in vivo” value is “did not induce”. Further, the “TGFβ production (latent TGFβ)” value in [5] is on record as “inhibited”. For the same compound, in [6], the “Lymphocyte proliferation (3H-thymidine, CPM)” value was “inhibited”.
Take `CN1CCN(c2ccc3nc(-c4c(N)c5sccc5[nH]c4=O)[nH]c3c2)CC1` [Compound 2]: the “EAE disease progression (clinical score)” value in data set [7] is on record as “blocks EAE disease progression”.

These data come from patent US20230144869A1, “METHODS FOR TREATING CYTOKINE RELEASE SYNDROME” (UNIVERSITY HEALTH NETWORK, priority 2020, published 2023).
